Source: ChEMBL document CHEMBL4321845, “Discovery and Characterization of Potent Pan-Genotypic HCV NS5A Inhibitors Containing Novel Tricyclic Central Core Leading to Clinical Candidate” (J Med Chem, 2019)

Tests used:
[1] = Oral bioavailability in rat at 10 mg/kg measured up to 24 hrs by LC-MS/MS analysis; type: ADME, organism-based; details: in vivo
[2] = Drug level in plasma of Wistar rat at 10 mg/kg, po measured at 4 hrs by LC-MS/MS analysis; type: ADME, organism-based
[3] = Half life in rat at 1 mg/kg, iv measured up to 24 hrs by LC-MS/MS analysis; type: ADME, organism-based; details: in vivo
[4] = Drug level in liver of Wistar rat at 10 mg/kg, po measured up to 8 hrs by LC-MS/MS analysis; type: ADME, organism-based; details: in vivo
[5] = Volume of distribution at steady state in beagle dog at 1 mg/kg, iv measured up to 24 hrs by LC-MS/MS analysis; type: ADME, organism-based, Canis lupus familiaris; details: in vivo, read-out: Vdss
[6] = AUC (last) in rat at 10 mg/kg, po measured up to 24 hrs by LC-MS/MS analysis; type: ADME, organism-based; design: dose 10 mg/kg, time 0 - last, route oral; details: in vivo
[7] = Tmax in rat at 30 mg/kg, po measured up to 24 hrs by LC-MS/MS analysis; type: ADME, organism-based; details: in vivo
[8] = Cytotoxicity in human HepG2 cells assessed as inhibition of cell growth at 10 uM incubated for 72 hrs by CCK8 assay relative to control; type: cell-based; details: read-out: GI
[9] = AUC (last) in rat at 30 mg/kg, po measured up to 24 hrs by LC-MS/MS analysis; type: ADME, organism-based; design: dose 30 mg/kg, time 0 - last, route oral; details: in vivo
[10] = Cmax in beagle dog at 10 mg/kg, po measured up to 24 hrs by LC-MS/MS analysis; type: ADME, organism-based, Canis lupus familiaris; design: dose 10 mg/kg, route oral; details: in vivo
[11] = Drug metabolism in rat liver microsomes assessed as metabolic rate at 1 uM preincubated for 5 mins before NADPH addition and measured up to 30 mins by LC-MS/MS analysis; type: ADME, Microsome; details: 0.5 h
[12] = AUC (last) in rat at 100 mg/kg, po measured up to 24 hrs by LC-MS/MS analysis; type: ADME, organism-based; design: dose 100 mg/kg, time 0 - last, route oral; details: in vivo
[13] = Tmax in rat at 100 mg/kg, po measured up to 24 hrs by LC-MS/MS analysis; type: ADME, organism-based; details: in vivo
[14] = Drug level in liver of Wistar rat at 10 mg/kg, po measured at 4 hrs by LC-MS/MS analysis; type: ADME, organism-based; details: read-out: Drug uptake
[15] = Half life in beagle dog at 1 mg/kg, iv measured up to 24 hrs by LC-MS/MS analysis; type: ADME, organism-based, Canis lupus familiaris; details: in vivo
[16] = Cytotoxicity in human HEK293 cells assessed as inhibition of cell growth at 3 uM incubated for 72 hrs by CCK8 assay relative to control; type: cell-based; details: read-out: GI
[17] = AUC(last) in rat at 1 mg/kg, iv measured up to 24 hrs by LC-MS/MS analysis; type: ADME, organism-based; design: dose 1 mg/kg, route intravenous, time 0 - last; details: in vivo
[18] = Ratio of dug level in liver to plasma of Wistar rat at 10 mg/kg, po measured at 4 hrs by LC-MS/MS analysis; type: ADME, organism-based
[19] = AUC(last) in beagle dog at 1 mg/kg, iv measured up to 24 hrs by LC-MS/MS analysis; type: ADME, organism-based, Canis lupus familiaris; design: dose 1 mg/kg, route intravenous, time 0 - last; details: in vivo
[20] = Oral bioavailability in beagle dog at 10 mg/kg measured up to 24 hrs by LC-MS/MS analysis; type: ADME, organism-based, Canis lupus familiaris; details: in vivo
[21] = Clearance in beagle dog at 1 mg/kg, iv measured up to 24 hrs by LC-MS/MS analysis; type: ADME, organism-based, Canis lupus familiaris; details: in vivo
[22] = Cmax in rat at 30 mg/kg, po measured up to 24 hrs by LC-MS/MS analysis; type: ADME, organism-based; design: dose 30 mg/kg, route oral; details: in vivo
[23] = biological target: CYP3A4 (Homo sapiens, UniProt P08684); assay: Inhibition of CYP3A4 in pooled human liver microsomes at 10 uM pre-incubated for 5 mins before NADPH addition and measured after 10 mins by UPLC-MS/MS analysis relative to control; type: ADME
[24] = AUC (last) in beagle dog at 10 mg/kg, po measured up to 24 hrs by LC-MS/MS analysis; type: ADME, organism-based, Canis lupus familiaris; design: dose 10 mg/kg, time 0 - last, route oral; details: in vivo
[25] = Volume of distribution at steady state in rat at 1 mg/kg, iv measured up to 24 hrs by LC-MS/MS analysis; type: ADME, organism-based; details: in vivo, read-out: Vdss
[26] = Cytotoxicity in human HepG2 cells assessed as inhibition of cell growth at 3 uM incubated for 72 hrs by CCK8 assay relative to control; type: cell-based; details: read-out: GI
[27] = Cytotoxicity in human HEK293 cells assessed as inhibition of cell growth at 10 uM incubated for 72 hrs by CCK8 assay relative to control; type: cell-based; details: read-out: GI
[28] = biological target: CYP2C9 (Homo sapiens, UniProt P11712); assay: Inhibition of CYP2C9 in pooled human liver microsomes at 10 uM pre-incubated for 5 mins before NADPH addition and measured after 10 mins by UPLC-MS/MS analysis relative to control; type: ADME
[29] = Tmax in rat at 10 mg/kg, po measured up to 24 hrs by LC-MS/MS analysis; type: ADME, organism-based; details: in vivo
[30] = Cytotoxicity in human HuH7 cells assessed as inhibition of cell growth at 3 uM incubated for 72 hrs by CCK8 assay relative to control; type: cell-based, Huh-7; details: read-out: GI
[31] = biological target: CYP2D6 (Homo sapiens, UniProt P10635); assay: Inhibition of CYP2D6 in pooled human liver microsomes at 10 uM pre-incubated for 5 mins before NADPH addition and measured after 10 mins by UPLC-MS/MS analysis relative to control; type: ADME
[32] = Cmax in rat at 10 mg/kg, po measured up to 24 hrs by LC-MS/MS analysis; type: ADME, organism-based; design: dose 10 mg/kg, route oral; details: in vivo
[33] = Clearance in rat at 1 mg/kg, iv measured up to 24 hrs by LC-MS/MS analysis; type: ADME, organism-based; details: in vivo
[34] = Drug metabolism in human liver microsomes assessed as metabolic rate at 1 uM preincubated for 5 mins before NADPH addition and measured up to 30 mins by LC-MS/MS analysis; type: ADME, Microsome; details: 0.5 h
[35] = Cmax in rat at 100 mg/kg, po measured up to 24 hrs by LC-MS/MS analysis; type: ADME, organism-based; design: dose 100 mg/kg, route oral; details: in vivo
[36] = Tmax in beagle dog at 10 mg/kg, po measured up to 24 hrs by LC-MS/MS analysis; type: ADME, organism-based, Canis lupus familiaris; details: in vivo
[37] = Protein binding in human plasma; type: ADME, cell-free; details: read-out: PPB
[38] = Tmax in beagle dog at 100 mg/kg, po measured up to 24 hrs by LC-MS/MS analysis; type: ADME, organism-based, Canis lupus familiaris; details: in vivo
[39] = AUC (last) in beagle dog at 30 mg/kg, po measured up to 24 hrs by LC-MS/MS analysis; type: ADME, organism-based, Canis lupus familiaris; design: dose 30 mg/kg, route oral, time 0 - last; details: in vivo
[40] = Cmax in beagle dog at 100 mg/kg, po measured up to 24 hrs by LC-MS/MS analysis; type: ADME, organism-based, Canis lupus familiaris; design: dose 100 mg/kg, route oral; details: in vivo
[41] = Cmax in beagle dog at 30 mg/kg, po measured up to 24 hrs by LC-MS/MS analysis; type: ADME, organism-based, Canis lupus familiaris; design: dose 30 mg/kg, route oral; details: in vivo
[42] = Cytotoxicity in human HuH7 cells assessed as inhibition of cell growth at 10 uM incubated for 72 hrs by CCK8 assay relative to control; type: cell-based, Huh-7; details: read-out: GI
[43] = Protein binding in rat plasma; type: ADME, cell-free; details: read-out: PPB
[44] = Tmax in beagle dog at 30 mg/kg, po measured up to 24 hrs by LC-MS/MS analysis; type: ADME, organism-based, Canis lupus familiaris; details: in vivo
[45] = AUC (last) in beagle dog at 100 mg/kg, po measured up to 24 hrs by LC-MS/MS analysis; type: ADME, organism-based, Canis lupus familiaris; design: dose 100 mg/kg, route oral, time 0 - last; details: in vivo

Sequence of CYP2D6 (P10635 whole entry): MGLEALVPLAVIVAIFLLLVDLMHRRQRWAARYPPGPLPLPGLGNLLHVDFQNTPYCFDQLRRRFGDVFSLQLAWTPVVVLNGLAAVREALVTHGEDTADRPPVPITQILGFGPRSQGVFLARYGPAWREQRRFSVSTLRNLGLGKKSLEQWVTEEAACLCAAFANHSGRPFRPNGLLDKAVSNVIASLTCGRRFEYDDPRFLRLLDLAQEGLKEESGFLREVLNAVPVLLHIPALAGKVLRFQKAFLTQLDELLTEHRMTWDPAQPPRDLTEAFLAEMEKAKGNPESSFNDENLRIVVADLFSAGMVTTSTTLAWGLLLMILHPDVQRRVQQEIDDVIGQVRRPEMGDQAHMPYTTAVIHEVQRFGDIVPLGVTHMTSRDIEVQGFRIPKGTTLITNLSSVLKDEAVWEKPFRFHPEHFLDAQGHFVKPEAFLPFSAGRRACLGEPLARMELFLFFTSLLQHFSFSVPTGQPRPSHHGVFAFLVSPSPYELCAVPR
Sequence of CYP2C9 (P11712 whole entry): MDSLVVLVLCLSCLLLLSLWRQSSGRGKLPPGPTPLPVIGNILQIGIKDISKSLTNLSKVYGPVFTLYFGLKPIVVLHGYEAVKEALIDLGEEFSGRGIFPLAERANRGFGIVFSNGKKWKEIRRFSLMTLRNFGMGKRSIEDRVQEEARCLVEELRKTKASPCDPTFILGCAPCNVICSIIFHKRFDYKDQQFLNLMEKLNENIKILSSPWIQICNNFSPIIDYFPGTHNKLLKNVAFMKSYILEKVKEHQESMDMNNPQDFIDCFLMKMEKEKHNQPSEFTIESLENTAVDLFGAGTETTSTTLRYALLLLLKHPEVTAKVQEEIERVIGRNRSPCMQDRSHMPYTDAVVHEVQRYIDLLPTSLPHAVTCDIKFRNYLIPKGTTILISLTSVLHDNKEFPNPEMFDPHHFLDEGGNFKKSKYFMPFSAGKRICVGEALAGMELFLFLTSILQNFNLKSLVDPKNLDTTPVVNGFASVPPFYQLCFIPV
Sequence of CYP3A4 (P08684 whole entry): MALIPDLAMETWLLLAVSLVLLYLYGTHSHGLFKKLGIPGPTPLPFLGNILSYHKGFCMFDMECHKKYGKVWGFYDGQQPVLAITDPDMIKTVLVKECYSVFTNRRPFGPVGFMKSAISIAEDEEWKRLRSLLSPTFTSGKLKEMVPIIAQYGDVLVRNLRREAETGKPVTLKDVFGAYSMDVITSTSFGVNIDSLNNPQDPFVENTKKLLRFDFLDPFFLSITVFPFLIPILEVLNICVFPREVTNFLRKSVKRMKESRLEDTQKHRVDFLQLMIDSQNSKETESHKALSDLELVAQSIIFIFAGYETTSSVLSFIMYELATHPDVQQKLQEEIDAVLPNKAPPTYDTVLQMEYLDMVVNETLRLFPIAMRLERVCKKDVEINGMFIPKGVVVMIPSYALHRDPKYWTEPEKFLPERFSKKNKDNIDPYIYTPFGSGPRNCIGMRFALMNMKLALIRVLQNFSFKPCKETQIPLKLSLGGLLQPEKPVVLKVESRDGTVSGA

## COC(=O)N[C@H](C(=O)N1CCC[C@H]1c1ncc(-c2ccc3c(c2)OCc2cc(-c4cnc([C@@H]5CCCN5C(=O)[C@@H](NC(=O)OC)C(C)C)[nH]4)sc2-3)[nH]1)C(C)C
[1]
  bioavailability: 30%
[2]
  concentration at 4 h: 1390 nM
[3]
  half-life: 114 min
[4]
  Drug uptake: Active
[5]
  Vd: 2 L/kg
[6]
  AUC(0-t) at 24 h: 2 to 6 µM·h
[7]
  Tmax: 4 to 6 h
[8]
  inhibition at 72 h, 10 µM: 16%
[9]
  AUC(0-t) at 24 h: 28 µM·h
[10]
  Cmax: 3 µM
[11]
  Drug metabolism: 0.01 nmol/min/mg
[12]
  AUC(0-t) at 24 h: 76 µM·h
[13]
  Tmax: 2 to 6 h
[14]
  concentration at 4 h: 7.9 µM
[15]
  half-life: 180 min
[16]
  inhibition at 72 h, 3 µM: 14%
[17]
  AUC(0-t) at 24 h: 2 µM·h
[18]
  Kp at 4 h: 5.5
[19]
  AUC(0-t) at 24 h: 3 µM·h
[20]
  bioavailability: 100%
[21]
  clearance: 7 mL/min/kg
[22]
  Cmax: 2000 nM
[23]
  inhibition at 10 min, 10 µM: 22%
[24]
  AUC(0-t) at 24 h: 40 µM·h
[25]
  Vd: 1.5 L/kg
[26]
  inhibition at 72 h, 3 µM: 0%
[27]
  inhibition at 72 h, 10 µM: 22%
[28]
  inhibition at 10 min, 10 µM: 41%
[29]
  Tmax: 2 to 4 h
[30]
  inhibition at 72 h, 3 µM: 3%
[31]
  inhibition at 10 min, 10 µM: 13%
[32]
  Cmax: 300 to 2000 nM
[33]
  clearance: 10 mL/min/kg
[34]
  Drug metabolism: 0.02 nmol/min/mg
[35]
  Cmax: 7 µM

## COC(=O)N[C@H](C(=O)N1CCC[C@H]1c1ncc(-c2ccc3c(ccc4cc(-c5cnc([C@@H]6CCCN6C(=O)[C@@H](NC(=O)OC)C(C)C)[nH]5)sc43)c2)[nH]1)C(C)C
[1]
  bioavailability: 30%
[2]
  concentration at 4 h: 600 nM
[36]
  Tmax: 1 h
[3]
  half-life: 120 min
[4]
  Drug uptake: Active
[5]
  Vd: 2 L/kg
[6]
  AUC(0-t) at 24 h: 4 to 6 µM·h
[7]
  Tmax: 4 to 6 h
[8]
  inhibition at 72 h, 10 µM: 22%
[9]
  AUC(0-t) at 24 h: 24 µM·h
[10]
  Cmax: 5 µM
[37]
  fraction unbound: < 0.01
[11]
  Drug metabolism: 0.01 nmol/min/mg
[12]
  AUC(0-t) at 24 h: 127 µM·h
[13]
  Tmax: 4 to 6 h
[38]
  Tmax: 3 h
[14]
  concentration at 4 h: 8.5 µM
[15]
  half-life: 240 min
[16]
  inhibition at 72 h, 3 µM: 0%
[17]
  AUC(0-t) at 24 h: 2 µM·h
[18]
  Kp at 4 h: 14.5
[19]
  AUC(0-t) at 24 h: 3 µM·h
[20]
  bioavailability: 100%
[21]
  clearance: 6 mL/min/kg
[22]
  Cmax: 3000 nM
[23]
  inhibition at 10 min, 10 µM: 12%
[39]
  AUC(0-t) at 24 h: 86 µM·h
[24]
  AUC(0-t) at 24 h: 49 µM·h
[40]
  Cmax: 17 µM
[25]
  Vd: 2 L/kg
[26]
  inhibition at 72 h, 3 µM: 3%
[41]
  Cmax: 10 µM
[42]
  inhibition at 72 h, 10 µM: 14%
[27]
  inhibition at 72 h, 10 µM: 36%
[28]
  inhibition at 10 min, 10 µM: 42%
[29]
  Tmax: 4 to 6 h
[30]
  inhibition at 72 h, 3 µM: 0%
[31]
  inhibition at 10 min, 10 µM: 12%
[43]
  fraction unbound: < 0.01
[44]
  Tmax: 4 h
[32]
  Cmax: 900 to 1000 nM
[33]
  clearance: 11 mL/min/kg
[45]
  AUC(0-t) at 24 h: 179 µM·h
[34]
  Drug metabolism: 0.04 nmol/min/mg
[35]
  Cmax: 15 µM
